Series [1] relates to normal murine lymph node cells. Briefly: CellTiter-Glo Luminescent Cell Viability Assay, normal murine lymph node cells. In kind it is cell-based. The note with it: 96 hours, FIG. 7. The source says:
FIG. 7 is a chart depicting the results of an in vitro assay of the conjugate against normal murine lymph node cells. The assay employed is the CellTiter-Glo™ Luminescent Cell Viability Assay from Promega Corporation, which is recognized in the art as being predictive of the effect of a compound on cell viability. The assay is detailed in Example 8. The method described by Promega Corporation (Technical Bulletin No. 288) was followed with no exceptions.
Doxorubicin and CobalaRubicin-200 stocks and stock solutions, prepared in 5% DMSO in water, were stored at −20° C. and protected from light. […]
(§1) After 96 hours, the effects of doxorubicin and B12-S-doxorubicin on cell viability were determined using an assay from Promega. The CellTiter-Glo™ Luminescent Cell Viability Assay quantitates the ATP present in a culture, which correlates with metabolically active cells. Luminescence, which is dependent on ATP concentration, was measured for each individual well on a Wallac MicroBeta® JET Liquid Scintillation and Luminescence Counter. The average luminescence value of the three wells containing medium alone was subtracted from the raw data values to give corrected values. […] The three corrected values for wells dosed with the same concentration of compound were averaged and the standard deviation calculated. Percent cell viability was calculated by considering the untreated cells as 100% viable. […]
In general terms: ATP-based viability assays read luminescence as a measure of living cells.

In series [2] the test system is SK-BR-3 cells. The series is described as follows: CellTiter-Glo Luminescent Cell Viability Assay, SK-BR-3 cells. The note with it: SK-BR-3, 96 hours, 100 μM down to 10 nM, FIG. 6b. In kind it is cell-based, human.
Source text: (§2) FIGS. 6a-6d depict the results of in vitro assays of the conjugate against four cell lines. FIG. 6A is a chart depicting the results of the conjugate against MCF-7 cells, cells derived from a human breast cancer cell line. FIG. 6B is a chart depicting the results of the conjugate against SK-BR-3 cells, cells derived from a human breast adenocarcinoma cell line. FIG. 6C is a chart depicting the results of the conjugate against HL-60 cells, cells derived from a human promyelocytic leukemia cell line. FIG. 6D is a chart depicting the results of the conjugate against SK-N-MC cells, cells derived from a human brain neuroblastoma (neuroepithelioma) cell line. […]
as §1, with “calculated.” for “calculated. Percent cell viability was calculated by considering the untreated cells as 100% viable.”

The test system of series [3] is HL-60 cells. The series is described as follows: CellTiter-Glo Luminescent Cell Viability Assay, HL-60 cells. In kind it is cell-based, human. The note with it: HL-60, 96 hours, 100 μM down to 10 nM, FIG. 6c.
Source text: as §2
as §1, with “calculated.” for “calculated. Percent cell viability was calculated by considering the untreated cells as 100% viable.”

The nature of series [4]: systemic toxicity / MTD of free doxorubicin versus conjugate on a molar basis (separate study). In kind it is in vivo, mice.
Series [5] has as its system MX-1 human breast carcinoma xenograft. The series is described as follows: tumor growth delay, MX-1 xenograft, two-cycle dosing (Example 11).
Method: The following procedure was used to investigate the tumor growth delay effects of the conjugate, particularly for the treatment of MX-1 human breast carcinoma xenograft in athymic mice using a two-cycle dosing regimen. Female nude Harlan mice are implanted subcutaneously with 1 mm^3 MX 1 solid tumor fragments in the flank. During the pre-dose phase of implantation and growth, tumors are initially monitored twice weekly, and then daily as the neoplasms approach the desired size of 80-120 mg. When the majority of tumors reached the targeted weight range (80-120 mg), mice are pair-matched into 5 treatment groups of 10 mice each. For purposes of this illustrationon the effect of 2-cycles of treatment, data from 3 groups are shown: no treatment, 3 mg/kg/day (days 1-5, 21-25) intravenous Doxorubicin and 24 mg/kg/day (days 1-5, 21-25) intravenous bioconjugate. Test article administration began on this day, referred to as Day 1. The tumor growth delay endpoint is reached when the tumor on the mouse reaches 1.5 gm weight estimated by the formula: Tumor weight (mg)=w^2×l/2×1 mg/mm^3, where w=width (mm) and l=length (mm) of the tumor. The median time to endpoint is calculated for each treatment group.
Series [6] has as its system MCF-7 cells. Briefly: CellTiter-Glo Luminescent Cell Viability Assay, MCF-7 cells. The note with it: MCF-7, 96 hours, 100 μM down to 10 nM, FIG. 6a. In kind it is cell-based, human.
Source text: as §2
as §1, with “calculated.” for “calculated. Percent cell viability was calculated by considering the untreated cells as 100% viable.”

Where [7] appears, read: lower dose than 24 mg/kg/day, data not shown.
Where [8] appears, read: two cycles of 24 mg/kg/day intravenous.
Where [9] appears, read: two cycles of 24 mg/kg/day intravenous, at 71 days.

Consider `COc1cccc2c1C(=O)c1c(O)c3c(c(O)c1C2=O)C[C@@](O)(C(=O)CO)C[C@@H]3O[C@H]1C[C@H](NC(=O)OCc2ccc(NC(=O)[C@H](CCCCN)NC(=O)[C@H](Cc3ccccc3)NC(=O)CCCCCNC(=O)OC[C@H]3O[C@H](n4cnc5cc(C)c(C)cc54)[C@H](O)[C@@H]3OP(=O)(O)O[C@H](C)CNC(=O)CC[C@@]3(C)C4=C(C)C5=NC(=CC6=NC(=C(C)C7=N[C@@](C)([C@H](N4)[C@@H]3CC(N)=O)[C@@](C)(CC(N)=O)[C@@H]7CCC(N)=O)[C@@](C)(CC(N)=O)[C@@H]6CCC(N)=O)C(C)(C)[C@@H]5CCC(N)=O)cc2)[C@H](O)[C@H](C)O1` [conjugate 13, B12-5′-OCONH(CH2)5CO-Phe-Lys-PABC-Dox], for which the “cell viability versus free doxorubicin” value in series [1] was “as effective as doxorubicin but shows slightly less potency than doxorubicin”. In addition, the “cell viability versus free doxorubicin” value in series [2] was “same effectiveness as doxorubicin and is slightly less potent than doxorubicin”. In addition, in series [3], the “cell viability versus free doxorubicin” value was “same effectiveness as doxorubicin and is slightly less potent than doxorubicin”. The “lethality at the same high molar dose” value in series [4] (free doxorubicin at the same high molar dose as the conjugate) is on record as “not by the doxorubicin conjugate”. Moreover, in series [4] (molar basis), the “dose higher than that of free doxorubicin on a molar basis, still with less systemic toxicity” value is recorded as “at least 2.3 time”. In series [5] (setting [7]), the “efficacy versus free doxorubicin on a molar equivalent basis” value was “less efficacious than free doxorubicin” and the “tumor growth versus non-treatment control” value is reported as “delay in tumor growth was observed”. The “time to endpoint longer than control mice” value in series [5] (two cycles of 24 mg/kg/day (days 1-5, 21-25) intravenous) was found to be 44 days. In series [5] (setting [8]), the “maximum body weight loss” value worked out at 10% and the “treatment or nontreatment related deaths” value is given as “no treatment or nontreatment related deaths”. In series [5] (setting [9]), the “long-term, tumor-free survivors” value is recorded as 7 of 10 and the “mice that developed complete regression” value is given as 9 of 10. In series [5] (two-cycle study, FIG. 12b, equivalent dose of doxorubicin in the conjugate 2-fold greater), the “recovery from weight loss versus native doxorubicin” value is on record as “tended recover from their weight loss sooner”. For the same compound, the “weight loss” value in series [5] (two-cycle study, doxorubicin 3 mg/kg/day, bioconjugate 24 mg/kg/day) is listed as “significant weight loss”. The “reduction of tumor size and delay of tumor growth” value in series [5] (two-cycle treatment, study day 71, FIG. 11) was “extremely effective at reducing tumor size and delaying tumor growth”. The “cell viability versus free doxorubicin” value in series [6] was “same effectiveness as doxorubicin and is slightly less potent than doxorubicin”.

The record behind these values is patent US7232805B2, “Cobalamin conjugates for anti-tumor therapy” (Inflabloc Pharmaceuticals, Inc., priority 2003, dated 2007).
